Converted amounts (≈) assume the structure as drawn.
Key:
HSV-1, Strain no. SM44 = assay: HSV-1 skin lesion model in guinea pigs; assay type: in vivo, guinea pig; details: for Extent of Skin Pathological Changes EPC (Mean ± SD) / Inhibition rate IR: Acyclovir cream 3 g %
From the text: Material. […] Virus is Herpes simplex type 1 (HSV-1, Strain no. SM44), imported from The American Type Culture Collection. The virus strain was proliferated and preserved by the Department of Virological Diagnosis, Institution of Virology, Chinese Preventative Medical Academy. “Bunched needle” refers to seven individual needles (size No. 7) bunched together as one bunch and seven bunches were put together as one “Bunched needle”. Other related apparatuses: All other apparatuses and reagents were provided by the Department of Virological Diagnosis, Chinese Preventative Medical Academy.
Animals: Guinea pigs, half male and half female, 200-250 grams (animal license no. YDHZ SCXK11-00-0006), supplied by the Animal Center of the Chinese Medical Academy and Peking Union Medical College.
HSV-1 cutaneous lesion in guinea pig. The animals were grouped in 5. Animals within each group will be the same gender and have similar body weight. The hair was removed from dorsal side of the animal and the skin was abraded with needles as described above. The entire abraded area was infected with 150 μl of HSV-1 stock suspension.
Typical herpes lesions appeared on the infected area on the 4th day of infection. The extent of pathological changes was scored as described below. […] The amount of cream given to each animal was 1.5 gram per dose twice daily for a six-day duration.
Daily records of the pathological changes infected area were made according to the following criteria:
When the skin lesions developed up to ¼ of the total area, the pathological changes were scored as 1.0-1.6;
When the skin lesions developed on 2/4 of the total area, the pathological changes were scored as 1.7-2.4;
When the skin developed on ¾ of the total area, the pathological changes were scored as 2.5-3.2;
When the skin lesions developed 4/4 of the total areas, the pathological changes were scored as 3.3-4.0;
When the skin herpes scars developed up to ¼ of the total areas, the pathological changes were scored as 0.9-1.0;
When the skin herpes scars were up to 2/4 of the total areas, the pathological changes were scored as 0.7-0.8;
When the skin herpes scars were up to ¾ of the total areas, the pathological changes were scored as 0.5-0.6;
When the skin herpes scars were up to 4/4 of the total areas, the pathological changes were scored as 0.2-0.4;
When the skin herpes scars were all detached and lesions healed, the pathological changes were scored as 0.

HSV-2, Strain no. 333 [1] = assay: HSV-2 mouse vaginal infection model, survival; assay type: in vivo, BALB/c mice; details: 3% Acyclovir cream
Description: (Batch no. 200205), provided by the Department of Biology, the Chinese University of Hong Kong, Hong Kong. […] Virus is Herpes simplex type II (HSV-2, Strain no. 333, batch no. 200104010), provided by the Department of Virological Diagnosis, Institution of Virology, Chinese Preventative Medical Academy. Needles for vaginal tract infection (size no. of 12) were prepared by the Department of Virological Diagnosis, Chinese Preventative Medical Academy. African green monkey kidney cells (Vero cells) were provided by the Department of Virological Diagnosis, Chinese Preventative Medical Academy. Physiological saline and cell culture medium was provided by the Department of Virological Diagnosis, Chinese Preventative Medical Academy. Inverted microscope was provided by the Department of Virological Diagnosis, Chinese Preventative Medical Academy. Carbon dioxide incubator was provided by the Department of Virological Diagnosis, Chinese Preventative Medical Academy. And other related apparatuses: provided by the Department of Virological Diagnosis, Chinese Preventative Medical Academy.
Animals: BALB/c mice, female, body weight range of 18-20 grams. Animal license no. YDHZ 01-3003, supplied by the Animal Center of the Chinese Medical Academy and Peking Union Medical College.
1. Target of the experiments: The mice could develop viral vaginitis following infection with HSV-2. […] Statistical analysis, t values and p values, was calculated in comparison with the virus control group. Efficacy of the testing samples will be evaluated on the basis of statistical calculation.
2. […] The number of animals per group was 10. Ten additional animals that were not infected with HSV-2 and received no treatment served as the uninfected control group.
Treatment began on day 3 post-infection. This was achieved by applying the cream to the vaginal tract with cotton swabs. The creams were given at a dose of 2 mg per mouse twice daily for a six-day duration. Mortality and the number of days for lethality to occur were recorded. The experiment was repeated twice. The protection rates and life span extension rates were calculated. The efficacy of testing agents were judged in comparison with the […] on the basis of the calculated t values and p values.
The survival rate and number of days for lethality to occur were recorded. The latter was expressed as the average life span in days.

HSV-2, Strain no. 333 [2] = assay: Recovery of HSV-2 from vaginal samples of infected mice (CPE on Vero cells); assay type: in vivo, BALB/c mice; details: Acyclovir cream 3 g %
HSV-1 [3] = details: Xu et al., Heterocycles 1994; cited from earlier work
HSV-induced cell fusion = details: Srinivas et al.; cited from earlier work
HSV-1 [4] = assay: Plaque reduction assay (Example 3), HSV-1 on Vero cells; assay type: cell-based, herpes simplex virus type 1
[5] = test system: HSV-1 (acyclovir-sensitive strain, BW-S strain); assay: Plaque reduction assay (Example 6), HSV-1 BW-S strain on Vero cells; assay type: cell-based, herpes simplex virus type 1
[6] = test system: HSV-1 strain Delta gC2-3 (glycoprotein C deficient); assay: Plaque reduction assay, glycoprotein C deficient HSV-1; assay type: cell-based, herpes simplex virus type 1; details: strain Delta gC2-3, plaque reduction assay
HSV-1 strain #15577 [7] = assay: Binding experiment: residual infectious virus after incubation with sample, strain #15577; assay type: cell-based, herpes simplex virus type 1; details: 2 mg heparin with 10^5 pfu, 36° C., 1 h; water control = 100%
Description: (§1) The mixture was serially diluted in medium and the number of residual infectious virus was determined by the plaque assay. The number of plaque developed in the water treatment control was taken as 100%.

HSV-1 strain Delta gC2-3 = assay: Binding experiment: residual infectious virus after incubation with sample, Delta gC2-3; assay type: cell-based, herpes simplex virus type 1; details: 2 mg heparin with 10^5 pfu, 36° C., 1 h; water control = 100%
Description: as §1

HSV-1 strain #15577 [8] = assay: Binding competition experiment, strain #15577; assay type: cell-based, herpes simplex virus type 1; details: mixed with virus and used immediately
Description: (§2) The anti-herpes effect of sodium heparin was further investigated by a binding competition experiment. In this experiment, 0.5 ml samples of HSV-1 (about 100 pfu) were mixed with 0.5 ml of sodium heparin at different concentrations. The mixtures were immediately used to infect Vero cells at 37° C. for 1 h. Following the incubation, the number of plaques were determined in the plaque assay. […] At 1 mg/ml heparin, the % plaque inhibition was 92%. Similar results were obtained when the gC-deficient HSV-1, Delta gC2-3, was used. In which case, the % plaque inhibition for 62.5 μg/ml and 1 mg/ml heparin were 77% and 86%, respectively.

[9] = test system: gC-deficient HSV-1, Delta gC2-3; assay: Binding competition experiment, Delta gC2-3; assay type: cell-based, herpes simplex virus type 1; details: mixed with virus and used immediately
Description: as §2

wild-type HSV-1 = assay: Penetration assay, wild-type HSV-1 into Vero cells; assay type: cell-based, herpes simplex virus type 1
Description: (§3) Penetration Assay. The penetration assay was conducted using the method as described in Example with modifications. Confluent Vero cell monolayers in 25 ml tissue culture flasks were chilled to 4° C. for 45 mm. The monolayers were infected with 300 pfu of HSV-1 in 2.5 ml of cold MEM Earle's medium. Attachment was synchronized for 1 h at 4° C. The flasks were washed twice with 4 ml of cold PBS to remove any unbound virus. The monolayers were covered with 5 ml of maintenance medium and shifted to 37° C. […] The flasks were incubated at 37° C. for 90 min, after which the monolayers were washed twice with 4 ml of PBS and covered with 10 ml of 0.8% methylcellulose in maintenance medium. Plaque formation was allowed at 37° C. for 72 h. For the citrate buffer treated group, 3 ml of buffer was added to the monolayers for 1 min. The cells were washed twice with PBS, after which medium was added to allow plaque formation. For the no treatment control group, following medium removal, the monolayers were washed twice with PBS and medium added to allow plaque formation.
Citrate buffer at pH 3 represents the penetration kinetics of HSV into Vero cells. The low pH removes adherent virus particles from the cell surface (i.e., those that have not yet penetrated). At time 20 min, all the wild type virus particles have penetrated and can not be removed by the low pH buffer (Table 6). […] This reduction is less obvious than the heparin treatment. At time 0 min, only 19% of the virus could penetrate and form plaque as compared to 49% in the heparin treatment.

[10] = test system: glycoprotein C-deficient mutant HSV-1; assay: Penetration assay, gC-deficient HSV-1 mutant into Vero cells; assay type: cell-based, herpes simplex virus type 1
Description: as §3
However, by 60 min, all the virus particles appeared to have penetrated.

[11] = Tabba et al.; cited from earlier work
[12] = Heparin 1000 μg/ml added at Time 0 min
[13] = Heparin 1000 μg/ml added at Time 10 min
[14] = Heparin 1000 μg/ml added at Time 20 min

## Nc1nc2c(ncn2COCCO)c(=O)[nH]1 [Acyclovir]
HSV-1, Strain no. SM44; Day 4 (start of treatment)
  Extent of Skin Pathological Changes EPC (Mean ± SD): 3.87 ± 0.12 cm^2
  Inhibition rate IR: 0%
HSV-1, Strain no. SM44; Day 5
  Extent of Skin Pathological Changes EPC (Mean ± SD): 3.54 ± 0.22 cm^2
  Inhibition rate IR: 11%
HSV-1, Strain no. SM44; Day 6
  Extent of Skin Pathological Changes EPC (Mean ± SD): 2.77 ± 0.40 cm^2
  Inhibition rate IR: 30%
HSV-1, Strain no. SM44; Day 7
  Extent of Skin Pathological Changes EPC (Mean ± SD): 2.02 ± 0.30 cm^2
  Inhibition rate IR: 44%
HSV-1, Strain no. SM44; Day 8
  Extent of Skin Pathological Changes EPC (Mean ± SD): 1.21 ± 0.38 cm^2
  Inhibition rate IR: 63%
HSV-1, Strain no. SM44; Day 9
  Extent of Skin Pathological Changes EPC (Mean ± SD): 0.82 ± 0.16 cm^2
  Inhibition rate IR: 71%
HSV-1, Strain no. SM44; Day 10
  Extent of Skin Pathological Changes EPC (Mean ± SD): 0.38 ± 0.18 cm^2
  Inhibition rate IR: 84%
HSV-1, Strain no. SM44; Day 11
  Extent of Skin Pathological Changes EPC (Mean ± SD): 0.09 ± 0.19 cm^2
  Inhibition rate IR: 96%
HSV-1, Strain no. SM44; cream-treated groups, seen in some animals of the virus control group
  signs of paralysis in lower limbs: not observed
HSV-2, Strain no. 333 [1]
  Life Span Extension Rate: 81.2%
  Protection Rate: 78.6%
  Survival: 80%
HSV-2, Strain no. 333 [1]; 30 animals
  No. of death: 6
  No. of survival: 24
HSV-2, Strain no. 333 [1]; listed as acyclovir
  Life Span Extension Rate: 81.3%
HSV-2, Strain no. 333 [2]
  Therapeutic Rate: 71%
HSV-2, Strain no. 333 [2]; 30 vaginal samples
  No. of samples containing HSV-2 After Treatment: 8
  No. of samples containing HSV-2 Before Treatment: 30

## O=Cc1cc(O)c(O)c(O)c1 [gallic aldehyde]
HSV-1 [3]
  IC50 against HSV-1: 12.5 µg/mL (≈ 81.1 µM)

## apolipoprotein A-I: high density serum apolipoprotein A-I
HSV-induced cell fusion
  concentration inhibiting HSV-induced cell fusion: 1 µM

## geponin
HSV-1 [3]
  IC50 against HSV-1: 25 µg/mL

## heparin
HSV-1 [4]; HSV-1 strain #15577, plaque reduction assay
  IC50: 750 µg/mL
HSV-1 [4]; plaque reduction assay, added 1 h after virus, strains 15577 and Delta gC2-3
  IC50 values: 750 to 1000 µg/mL
[5]
  anti-HSV-1 IC50: 300 µg/mL
[6]
  IC50: > 1000 µg/mL
HSV-1 strain #15577 [7]
  original virus still infectious: 30%
HSV-1 strain Delta gC2-3
  original virus still infectious: 42%
HSV-1 strain #15577 [8]; 62.5 μg/ml
  % plaque inhibition: 88%
HSV-1 strain #15577 [8]; 1 mg/ml
  % plaque inhibition: 92%
[9]; 62.5 μg/ml
  % plaque inhibition: 77%
[9]; 1 mg/ml
  % plaque inhibition: 86%
wild-type HSV-1; [12]
  % Plaques: 49%
wild-type HSV-1; Heparin 1000 μg/ml added at Time 2 min
  % Plaques: 57%
wild-type HSV-1; Heparin 1000 μg/ml added at Time 4 min
  % Plaques: 88%
wild-type HSV-1; Heparin 1000 μg/ml added at Time 6 min
  % Plaques: 86%
wild-type HSV-1; [13]
  % Plaques: 100%
wild-type HSV-1; Heparin 1000 μg/ml added at Time 15 min
  % Plaques: 100%
wild-type HSV-1; [14]
  % Plaques: 100%
[10]; [12]
  % Plaques: 62%
[10]; [13]
  % Plaques: 90%
[10]; [14]
  % Plaques: 100%
[10]; Heparin 1000 μg/ml added at Time 30 min
  % Plaques: 100%
[10]; Heparin 1000 μg/ml added at Time 40 min
  % Plaques: 100%
[10]; Heparin 1000 μg/ml added at Time 50 min
  % Plaques: 84%
[10]; Heparin 1000 μg/ml added at Time 60 min
  % Plaques: 100%
[10]; heparin 1000 μg/ml, in words
  effects on the penetration of the gC-deficient mutant into Vero cells: no apparent effects

## prunellin
[11]
  pH in aqueous solution: 7.4

Source: patent publication US20030215529A1, “Composition and pharmaceutical preparation containing same for the treatment of herpes and related viral infections” (Dalhousie University, priority 1998, published 2003)
